Assay results published in patent US4024246A, “Antibiotic A-22082 and process for production thereof” (Eli Lilly and Company, priority 1976, dated 1977).
Read-outs that look alike come from different tables or passages of the source. *1 amine or outer side, *2 acyl side, *3 side chain or, on linkers, in order; H or OH if unused. Where a SMILES comes first, the peptide text is derived from it. Bridges are numbered along the chain shown (N, C = ends). [ ]: non-standard residue; d: D form. The star is where a group is joined. ξ: configuration not given here. Orn(4R-OH,5R-OH) = O=C([C@H](C[C@@H](O)[C@@H](O)N[*:3])N[*:1])[*:2]; hTyr(3S-OH,4S-OH) = N[C@H](C(=O)O)[C@H](O)[C@@H](O)c1ccc(O)cc1; ξOrn(4,5-diOH) = O=C(C(CC(O)C(O)N[*:3])N[*:1])[*:2]; ξhTyr(βξ-OH,γξ-OH) = NC(C(=O)O)C(O)C(O)c1ccc(O)cc1; Pro(3S-OH,4S-Me) = C[C@H]1CN[C@H](C(=O)O)[C@H]1O; Linoleoyl = CCCCC/C=C\C/C=C\CCCCCCCC(=O)*; ξPro(3ξ-OH,4ξ-Me) = CC1CNC(C(=O)O)C1O; Hyp = O=C(O)[CH]1C[CH](O)CN1; X1 = CCCCCC=CCC=CCCCCCCCC(=O)*

Assays:
dermatophytes [1] = conditions: reported by F. Benz et al., Helv. Chim. Acta 57, 2459-2477 (1974); cited from earlier work
dermatophytes [2] = assay: in vitro activity against dermatophytes; format: cell-based; conditions: in words
Description: (§1) Antibiotic A-22082 is a useful antifungal agent. […] Antifungal activity was measured by the conventional disc-diffusion method (6-mm pads were dipped in solutions containing antibiotic A-22082; pads were placed on agar plates seeded with test organism). Table II summarizes the minimal inhibitory concentration (MIC) per disc at which antibiotic A-22082 inhibited representative organisms.
(§2) Antibiotic A-22082 is very active in in vitro disc-diffusion tests against dermatophytes.

Trichophyton rubrum = assay: disc-diffusion test, Trichophyton rubrum; format: cell-based; conditions: Table III; 1 isolate
Description: as §1, §2

[3] = test system: Trichophyton schoenleinii; assay: disc-diffusion test, Trichophyton schoenleinii; format: cell-based; conditions: Table III; 1 isolate
Description: as §1, §2

Trichophyton gallinae = assay: disc-diffusion test, Trichophyton gallinae; format: cell-based; conditions: Table III; 1 isolate
Description: as §1, §2

[4] = test system: Epidermatophyton floccosum; assay: disc-diffusion test, Epidermatophyton floccosum; format: cell-based; conditions: Table III; 1 isolate
Description: as §1, §2

Trichophyton terrestre = assay: disc-diffusion test, Trichophyton terrestre; format: cell-based; conditions: Table III; 1 isolate
Description: as §1, §2

Trichophyton quinckeanum = assay: disc-diffusion test, Trichophyton quinckeanum; format: cell-based; conditions: Table III; 1 isolate
Description: as §1, §2

Philaphere jean salemi = assay: disc-diffusion test, Philaphere jean salemi; format: cell-based; conditions: Table III; 1 isolate
Description: as §1, §2

electrometric titration = format: physicochemical; conditions: 66% aqueous dimethylformamide, initial pH 6.9
Keratinomyces ajellio = assay: disc-diffusion test, Keratinomyces ajellio; format: cell-based; conditions: Table III; 1 isolate
Description: as §1, §2

Candida albicans [5] = assay: disc-diffusion antifungal test, Candida albicans; format: cell-based; conditions: Table II, 6-mm pads, agar plates
Description: as §1

solubility = format: physicochemical
Trichophyton meginini = assay: disc-diffusion test, Trichophyton meginini; format: cell-based; conditions: Table III; 1 isolate
Description: as §1, §2

[6] = test system: Trichophyton mentagrophytes; assay: disc-diffusion antifungal test, Trichophyton mentagrophytes; format: cell-based; conditions: Table II, 6-mm pads, agar plates
Description: as §1, §2

Candida albicans [7] = assay: in vivo protection of Candida albicans-infected mice; conditions: two doses
Description: A measure of the protection afforded is the ED50 value [the effective dose in mg./kg. which protects 50 percent of the mice; see W. Wick et al., J. Bacteriol. 81, 233-235 (19610]. The ED50 values for antibiotic A-22082 against Candida albicans in mice were 30 mg./kg. (intraperitoneal administration) and 50 mg./kg. (subcutaneous administration).

Nannizzia incurvata = assay: disc-diffusion test, Nannizzia incurvata; format: cell-based; conditions: Table III; 1 isolate
Description: as §1, §2

mice = assay: acute toxicity in mice; format: in vivo
Description: 3 times over 24 hours (a total of 600 mg./kg.).

Candida tropicalis = assay: disc-diffusion antifungal test, Candida tropicalis; format: cell-based; conditions: Table II, 6-mm pads, agar plates
Description: as §1

Compound: CCCCCC=CCC=CCCCCCCCC(=O)NC1CC(O)C(O)NC(=O)C2C(O)C(C)CN2C(=O)C(C(C)O)NC(=O)C(C(O)C(O)c2ccc(O)cc2)NC(=O)C2CC(O)CN2C(=O)C(C(C)O)NC1=O (stereo not drawn) [Echinocandin B] (X1-[ξOrn(4,5-diOH)]T[Hyp][ξhTyr(βξ-OH,γξ-OH)]T[ξPro(3ξ-OH,4ξ-Me)]; lactam 1-C; configuration not given here)
- activity against dermatophytes (dermatophytes [1]): inactive against dermatophytes

Compound: CCCCC/C=C\C/C=C\CCCCCCCC(=O)N[C@H]1C[C@@H](O)[C@@H](O)NC(=O)[C@@H]2[C@@H](O)[C@@H](C)CN2C(=O)[C@H]([C@@H](C)O)NC(=O)[C@H]([C@H](O)[C@@H](O)c2ccc(O)cc2)NC(=O)[C@@H]2C[C@@H](O)CN2C(=O)[C@H]([C@@H](C)O)NC1=O [antibiotic A-22082] (Linoleoyl-[Orn(4R-OH,5R-OH)]T[Hyp][hTyr(3S-OH,4S-OH)]T[Pro(3S-OH,4S-Me)]; lactam 1-C)
- activity against dermatophytes (dermatophytes [2]): very active
- activity against dermatophytes (dermatophytes [2]; listed as A-22082): active against dermatophytes
- MIC (Trichophyton rubrum): < .0098 mcg/disc
- MIC [3]: 0.0195 mcg/disc
- MIC (Trichophyton gallinae): > 1.25 mcg/disc
- MIC [4]: 1.25 mcg/disc
- MIC (Trichophyton terrestre): 0.0195 mcg/disc
- MIC (Trichophyton quinckeanum): > 1.25 mcg/disc
- MIC (Philaphere jean salemi): > 1.25 mcg/disc
- pKa value (electrometric titration): 12.7
- MIC (Keratinomyces ajellio): 0.156 mcg/disc
- minimal inhibitory concentration (MIC) per disc (Candida albicans [5]): 0.625 mcg./disc
- solubility in nonpolar organic solvents (solubility; diethyl ether, petroleum ether): insoluble
- solubility in aqueous solutions (solubility; especially those having a pH greater than 7.0): soluble
- solubility in organic solvents (solubility; methanol, ethanol, dimethylformamide, dimethyl sulfoxide, ethyl acetate): soluble
- MIC (Trichophyton meginini): 0.0195 mcg/disc
- minimal inhibitory concentration (MIC) per disc [6]: 0.078 mcg./disc
- ED50 (effective dose which protects 50 percent of the mice) (Candida albicans [7]; intraperitoneal administration): 30 mg/kg
- ED50 (effective dose which protects 50 percent of the mice) (Candida albicans [7]; subcutaneous administration): 50 mg/kg
- protection against C. albicans (Candida albicans [7]; Candida albicans-infected mice): protection against C. albicans was provided
- MIC (Nannizzia incurvata): 0.312 mcg/disc
- signs of acute toxicity (mice; intraperitoneal, 100 mg./kg. twice per day for three days (total 600 mg./kg.)): no signs of acute toxicity
- signs of acute toxicity (mice; ip, 200 mg./kg. 3 times over 24 hours (total 600 mg./kg.)): no signs of acute toxicity
- signs of acute toxicity (mice; subcutaneous, 100 mg./kg. twice per day for three days (total 600 mg./kg.)): no signs of acute toxicity
- minimal inhibitory concentration (MIC) per disc (Candida tropicalis): 3.12 mcg./disc
